The results in this text go back to patent US11331364B2, “Use for JNK inhibitor molecules for treatment of various diseases” (Xigen Inflammation Ltd., priority 2014, dated 2022).

In assay [1] the target is T1, hJNK1 (Homo sapiens, UniProt P45983).
T1 construct: His; purchased Upstate 14-327
Kind of assay: hJNK1 | IC50. The source says: (§1) Table printed on a drawing sheet, Fig. 4
Head of the field: hJNK1 | IC50
(§2) The patent's description of the figure: FIG. 4: Table illustrating the inhibitory efficacy of several JNK inhibitors according to the present invention, which are fusion proteins of a JNK inhibitory (poly-)peptide sequence and a transporter sequence. Given are the IC50 values in the nM range, the respective standard error of the mean (SEM) and the number of experiments performed (n).
(§3) First copying reader's note: The sheet prints no unit for IC50 (the description says nM range); decimal commas are used, except for three IC50 cells printed with a point (3820.81, 5340.33, 8130.86).
Where the first naming reader finds the target: head: hJNK1 | IC50

Assay [2] addresses hJNK3 (Homo sapiens, UniProt P53779). Kind of assay: hJNK3 | IC50.
Source text: as §1
Head of the field: hJNK3 | IC50
as §2, §3
Where the first naming reader finds the target: head: hJNK3 | IC50

In assay [3] the target is hJNK2 (Homo sapiens, UniProt P45984). The assay is described as follows: hJNK2 | IC50.
Chain of hJNK2 (P45984 whole entry, looked up): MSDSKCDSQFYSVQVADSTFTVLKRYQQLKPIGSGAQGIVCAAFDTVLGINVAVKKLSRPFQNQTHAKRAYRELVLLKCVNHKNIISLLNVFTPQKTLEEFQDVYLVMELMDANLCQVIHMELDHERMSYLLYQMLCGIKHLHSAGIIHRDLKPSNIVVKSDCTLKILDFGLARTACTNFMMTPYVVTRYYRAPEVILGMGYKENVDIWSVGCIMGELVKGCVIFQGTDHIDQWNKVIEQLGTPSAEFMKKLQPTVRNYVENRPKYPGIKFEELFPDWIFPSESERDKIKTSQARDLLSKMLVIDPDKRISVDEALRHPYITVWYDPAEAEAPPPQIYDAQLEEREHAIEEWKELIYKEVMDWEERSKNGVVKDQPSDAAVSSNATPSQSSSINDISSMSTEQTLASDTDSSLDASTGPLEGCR
Source text: as §1
Head of the field: hJNK2 | IC50
as §2, §3
Where the first naming reader finds the target: head: hJNK2 | IC50

Where two headings read alike, the source gives them in different places. Square brackets hold non-standard residues; d marks the D form. Peptide text beside a SMILES is read from it.

Chain of hJNK3 (P53779 whole entry, looked up): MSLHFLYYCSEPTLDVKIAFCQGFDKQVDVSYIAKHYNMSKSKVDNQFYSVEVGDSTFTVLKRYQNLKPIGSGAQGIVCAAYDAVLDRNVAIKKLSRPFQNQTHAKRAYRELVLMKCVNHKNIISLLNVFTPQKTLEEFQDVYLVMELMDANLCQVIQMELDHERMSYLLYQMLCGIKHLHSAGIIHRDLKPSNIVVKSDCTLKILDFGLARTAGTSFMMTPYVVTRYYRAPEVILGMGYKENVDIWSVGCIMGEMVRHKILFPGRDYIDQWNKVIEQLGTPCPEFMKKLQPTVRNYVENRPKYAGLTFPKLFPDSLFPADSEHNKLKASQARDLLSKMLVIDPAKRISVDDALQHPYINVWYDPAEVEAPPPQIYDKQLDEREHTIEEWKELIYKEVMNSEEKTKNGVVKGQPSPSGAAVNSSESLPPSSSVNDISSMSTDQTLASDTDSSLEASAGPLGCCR
T1 sequence (P45983 whole entry, looked up): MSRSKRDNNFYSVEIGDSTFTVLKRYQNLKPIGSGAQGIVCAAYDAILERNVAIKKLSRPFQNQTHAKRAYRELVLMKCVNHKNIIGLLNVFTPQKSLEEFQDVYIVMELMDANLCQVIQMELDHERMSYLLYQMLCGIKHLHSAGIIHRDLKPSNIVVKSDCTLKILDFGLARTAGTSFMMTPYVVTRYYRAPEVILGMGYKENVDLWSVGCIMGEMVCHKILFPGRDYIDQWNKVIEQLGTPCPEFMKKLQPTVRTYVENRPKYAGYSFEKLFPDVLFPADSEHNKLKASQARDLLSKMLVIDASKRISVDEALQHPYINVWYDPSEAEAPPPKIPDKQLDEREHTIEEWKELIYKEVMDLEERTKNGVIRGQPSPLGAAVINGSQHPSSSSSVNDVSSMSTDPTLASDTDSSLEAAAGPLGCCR

With `CC(C)C[C@H](NC(=O)[C@H](CC(=O)O)NC(=O)[C@@H](NC(=O)[C@@H]1CCCN1C(=O)[C@H](CCCNC(=N)N)NC(=O)[C@@H](CCCCN)NC(=O)[C@@H]1CCCN1C(=O)[C@H](CCCNC(=N)N)NC(=O)[C@@H](CCCNC(=N)N)NC(=O)[C@H](CCCNC(=N)N)NC(=O)[C@H](CCCNC(=N)N)NC(=O)[C@H](CCC(N)=O)NC(=O)[C@@H](CCCNC(=N)N)NC(=O)[C@H](CCCNC(=N)N)NC(=O)[C@H](CCCCN)NC(=O)[C@H](CCCCN)NC(=O)[C@H](N)CCCNC(=N)N)[C@@H](C)O)C(=O)N[C@@H](CC(N)=O)C(=O)N[C@@H](CC(C)C)C(=O)N[C@H](Cc1ccccc1)C(N)=O` [SEQ ID NO: 177, rKKRrQRRrRPkRPTDLNLf] (H-[dR]KKR[dR]QRR[dR]RP[dK]RPTDLNL[dF]-NH2), the IC50 (usually the concentration at which inhibition is half-maximal) in assay [1] (read-out: hJNK1 | IC50) is 0.355 µM; in assay [2] (read-out: hJNK3 | IC50) it was 0.0454 µM; in assay [3] (read-out: hJNK2 | IC50), 0.0872 µM.
Regarding `CC(C)C[C@H](NC(=O)[C@@H](NC(=O)[C@@H](NC(=O)[C@@H]1CCCN1C(=O)[C@H](CCCNC(=N)N)NC(=O)[C@@H](CCCNC(=N)N)NC(=O)[C@H](CCCNC(=N)N)NC(=O)[C@H](CCC(N)=O)NC(=O)[C@@H](CCCNC(=N)N)NC(=O)[C@H](CCCNC(=N)N)NC(=O)[C@H](CCCCN)NC(=O)[C@H](CCCCN)NC(=O)[C@H](N)CCCNC(=N)N)[C@@H](C)O)[C@@H](C)O)C(=O)N[C@H](CCCNC(=N)N)C(=O)N[C@@H](CC(C)C)C(=O)N[C@H](Cc1c[nH]c2ccccc12)C(N)=O` [SEQ ID NO: 179, rKKRrQRrRPTTLrLw] (H-[dR]KKR[dR]QR[dR]RPTTL[dR]L[dW]-NH2), the IC50 in assay [1] (read-out: hJNK1 | IC50) was 0.249 µM; in assay [2] (read-out: hJNK3 | IC50) it was 0.0457 µM; in assay [3] (read-out: hJNK2 | IC50), 0.122 µM.
As to `CC(C)C[C@H](NC(=O)[C@H](CC(N)=O)NC(=O)[C@H](CC(C)C)NC(=O)[C@@H](NC(=O)[C@@H](NC(=O)[C@@H]1CCCN1C(=O)[C@H](CCCNC(=N)N)NC(=O)[C@H](CCCNC(=N)N)NC(=O)[C@H](CCCNC(=N)N)NC(=O)[C@H](CCC(N)=O)NC(=O)[C@H](CCCNC(=N)N)NC(=O)[C@H](CCCNC(=N)N)NC(=O)[C@H](CCCCN)NC(=O)[C@H](CCCCN)NC(=O)[C@H](CCCNC(=N)N)NC(=O)CN)[C@@H](C)O)[C@@H](C)O)C(=O)N[C@@H](Cc1ccccc1)C(=O)N1CCC[C@H]1C(=O)N[C@@H](CCC(N)=O)C(=O)N[C@H](C(=O)N1CCC[C@H]1C(=O)N[C@@H](CCCNC(=N)N)C(=O)N[C@@H](CO)C(=O)N[C@@H](CCC(N)=O)C(=O)N[C@@H](CC(=O)O)C(N)=O)C(C)C` [SEQ ID NO: 195] (H-GRKKRRQRRRPTTLNLFPQVPRSQD-NH2), the results for the IC50 in assay [1], in assay [2] and in assay [3] were 0.0108 µM, 0.00492 µM and 0.0113 µM, respectively.
On to `CC(C)C[C@H](NC(=O)[C@@H](NC(=O)[C@@H](NC(=O)[C@@H]1CCCN1C(=O)[C@H](CCCNC(=N)N)NC(=O)[C@@H](CCCNC(=N)N)NC(=O)[C@H](CCCNC(=N)N)NC(=O)[C@H](CCCNC(=N)N)NC(=O)[C@H](CCC(N)=O)NC(=O)[C@@H](CCCNC(=N)N)NC(=O)[C@H](CCCNC(=N)N)NC(=O)[C@H](CCCCN)NC(=O)[C@H](CCCCN)NC(=O)[C@H](N)CCCNC(=N)N)[C@@H](C)O)[C@@H](C)O)C(=O)N[C@H](CCCNC(=N)N)C(=O)N[C@@H](CC(C)C)C(=O)N[C@H](Cc1c[nH]c2ccccc12)C(N)=O` [SEQ ID NO: 178, rKKRrQRRrRPTTLrLw] (H-[dR]KKR[dR]QRR[dR]RPTTL[dR]L[dW]-NH2), for which the values for the IC50 in assay [1] (read-out: hJNK1 | IC50), in assay [2] (read-out: hJNK3 | IC50) and in assay [3] (read-out: hJNK2 | IC50) were 0.329 µM, 0.0304 µM and 0.109 µM, respectively.
For `CC(C)C[C@H](NC(=O)[C@H](CC(N)=O)NC(=O)[C@H](CC(C)C)NC(=O)[C@@H](NC(=O)[C@@H](C)NC(=O)[C@@H]1CCCN1C(=O)[C@H](CCCNC(=N)N)NC(=O)[C@@H](CCCNC(=N)N)NC(=O)[C@H](CCCNC(=N)N)NC(=O)[C@H](CCC(N)=O)NC(=O)[C@@H](CCCNC(=N)N)NC(=O)[C@H](CCCNC(=N)N)NC(=O)[C@H](CCCCN)NC(=O)[C@H](CCCCN)NC(=O)[C@H](N)CCCNC(=N)N)[C@@H](C)O)C(=O)N[C@H](Cc1ccccc1)C(N)=O` [SEQ ID NO: 183, rKKRrQRrRPaTLNLf] (H-[dR]KKR[dR]QR[dR]RP[dA]TLNL[dF]-NH2) the same measures were 2.59 µM, 0.199 µM and 0.427 µM.
`CC(C)C[C@H](NC(=O)[C@H](C)NC(=O)[C@H](CCCCN)NC(=O)[C@H](CCCNC(=N)N)NC(=O)[C@H](CCCCN)NC(=O)CNC(=O)[C@@H](CCCNC(=N)N)NC(=O)[C@H](CCCNC(=N)N)NC(=O)[C@H](CCCNC(=N)N)NC(=O)[C@H](CCC(N)=O)NC(=O)[C@@H](CCCNC(=N)N)NC(=O)[C@H](CCCNC(=N)N)NC(=O)[C@H](CCCCN)NC(=O)[C@H](CCCCN)NC(=O)[C@H](N)CCCNC(=N)N)C(=O)N[C@H](CCCNC(=N)N)C(=O)N[C@@H](CC(C)C)C(=O)N[C@H](Cc1ccccc1)C(N)=O` [SEQ ID NO: 189, rKKRrQRRrGKRKALrLf] (H-[dR]KKR[dR]QRR[dR]GKRKAL[dR]L[dF]-NH2): the concentration for half-maximal inhibition (IC50) in assay [1] was 22.3 µM; in assay [2], 0.128 µM; in assay [3], 0.176 µM.
For the compound `CC(C)C[C@H](NC(=O)[C@H](CC(N)=O)NC(=O)[C@H](CC(C)C)NC(=O)[C@@H](NC(=O)[C@@H](NC(=O)[C@@H]1CCCN1C(=O)[C@H](CCCNC(=N)N)NC(=O)[C@@H](CCCCN)NC(=O)[C@@H]1CCCN1C(=O)[C@H](CCCNC(=N)N)NC(=O)[C@@H](CCCNC(=N)N)NC(=O)[C@H](CCCNC(=N)N)NC(=O)[C@H](CCCNC(=N)N)NC(=O)[C@H](CCC(N)=O)NC(=O)[C@@H](CCCNC(=N)N)NC(=O)[C@H](CCCNC(=N)N)NC(=O)[C@H](CCCCN)NC(=O)[C@H](CCCCN)NC(=O)[C@H](N)CCCNC(=N)N)[C@@H](C)O)[C@@H](C)O)C(=O)N[C@H](Cc1c[nH]c2ccccc12)C(N)=O` [SEQ ID NO: 176, rKKRrQRRrRPkRPTTLNLw] (H-[dR]KKR[dR]QRR[dR]RP[dK]RPTTLNL[dW]-NH2), the IC50 in assay [1] (read-out: hJNK1 | IC50) is 0.131 µM; in assay [2] (read-out: hJNK3 | IC50), 0.0224 µM; in assay [3] (read-out: hJNK2 | IC50) it was 0.0403 µM.
The like results for `CC(C)C[C@H](NC(=O)[C@H](CC(=O)O)NC(=O)[C@@H](NC(=O)[C@@H]1CCCN1C(=O)[C@H](CCCNC(=N)N)NC(=O)[C@@H](CCCNC(=N)N)NC(=O)[C@H](CCCNC(=N)N)NC(=O)[C@H](CCCNC(=N)N)NC(=O)[C@H](CCC(N)=O)NC(=O)[C@@H](CCCNC(=N)N)NC(=O)[C@H](CCCNC(=N)N)NC(=O)[C@H](CCCCN)NC(=O)[C@H](CCCCN)NC(=O)[C@H](N)CCCNC(=N)N)[C@@H](C)O)C(=O)N[C@H](CCCNC(=N)N)C(=O)N[C@@H](CC(C)C)C(=O)N[C@H](Cc1c[nH]c2ccccc12)C(N)=O` [SEQ ID NO: 180, rKKRrQRRrRPTDLrLw] (H-[dR]KKR[dR]QRR[dR]RPTDL[dR]L[dW]-NH2) were, in that order, 0.265 µM, 0.047 µM and 0.118 µM.
